For the assay, the target named is CD36 (Rattus norvegicus (Rat), UniProt Q07969). As to the kind of experiment: CD36 receptor covalent photolabelling binding assay, competition with [125I]Tyr-Bpa-Ala-hexarelin on rat cardiac membranes.

Usually IC50 stands for the concentration needed to halve the response being measured.

The structures appear in SMILES notation. Starred links: 1 amine or outer side, 2 acyl side, 3 side chain; linkers in the order of their positions; H or OH if unused. Non-standard residues stand in square brackets, D forms with d. Residues, ends and D or L forms follow the SMILES beside them. azaTyr = O=C(N(Cc1ccc(O)cc1)N[*:1])[*:2]

Chain of CD36 (Q07969 whole entry): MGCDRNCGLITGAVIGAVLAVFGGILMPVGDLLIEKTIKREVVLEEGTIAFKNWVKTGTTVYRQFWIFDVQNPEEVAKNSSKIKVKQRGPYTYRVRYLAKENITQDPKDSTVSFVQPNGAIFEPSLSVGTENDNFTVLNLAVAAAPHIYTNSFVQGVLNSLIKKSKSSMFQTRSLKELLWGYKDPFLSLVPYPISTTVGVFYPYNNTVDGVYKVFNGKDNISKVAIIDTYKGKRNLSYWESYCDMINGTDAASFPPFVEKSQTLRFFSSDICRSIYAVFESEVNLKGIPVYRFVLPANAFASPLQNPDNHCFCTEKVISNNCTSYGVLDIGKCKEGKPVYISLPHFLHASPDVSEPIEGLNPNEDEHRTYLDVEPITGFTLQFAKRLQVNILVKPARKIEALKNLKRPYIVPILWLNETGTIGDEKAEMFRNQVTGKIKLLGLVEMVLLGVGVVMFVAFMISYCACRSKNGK

Regarding `C[C@H](NC(=O)[C@@H](Cc1c[nH]c2ccccc12)NC(=O)[C@@H](N)Cc1cnc[nH]1)C(=O)NN(Cc1ccc(O)cc1)C(=O)N[C@H](Cc1ccccc1)C(=O)N[C@@H](CCCCN)C(N)=O` [DBG178p, His-D-Trp-Ala-azaTyr-D-Phe-Lys-NH2] (H-H[dW]A[azaTyr][dF]K-NH2), under “Table 3, rat cardiac membranes, [125I]Tyr-Bpa-Ala-hexarelin as radioligand, read-out: IC50, binding affinity of aza peptide derivatives towards CD36”, the IC50 came to 28 µM. For the same molecule, the “binding activity/affinity at CD36 in words” value (compared with parent peptide GHRP-6 or hexarelin) is on record as “maintaining the binding activity”.

The values are drawn from patent US9708370B2, “Azapeptides as CD36 binding compounds” (VALORISATION-RECHERCHE, LIMITED PARTNERSHIP, priority 2007, dated 2017).
